In ChEMBL document CHEMBL5528044, “Exploring the Function of (+)-Naltrexone Precursors: Their Activity as TLR4 Antagonists and Potential in Treating Morphine Addiction” (J Med Chem, 2024):
Active and inactive are the calls of the source. No cut-off for these calls is given here.

How the values were obtained:
[1] = Cytotoxicity against mouse BV-2 cells incubated for 24 hrs by crystal violet staining based assay; format: toxicity, cell-based
[2] = AUC (0 to infinity) in Balb/c mouse at 2 mg/kg,iv administration and measured upto 24 hrs by LC-MS/MS analysis; format: ADME, organism-based; settings: in vivo
[3] = AUC (0 to infinity) in Balb/c mouse at 20 mg/kg,po administration and measured upto 24 hrs by LC-MS/MS analysis; format: ADME, organism-based; settings: in vivo
Mus musculus [4] = test: Inhibition of chronic morphine-induced microglia activation in Balb/c mouse assessed as reduction in TNF-alpha mRNA expression in brain ventral tegmental area region at 0.2 mg/kg,ip administrated for 6 consecutive days by qPCR analysis; format: functional, organism-based
Mus musculus [5] = test: Inhibition of chronic morphine-induced microglia activation in Balb/c mouse assessed as reduction in TNF-alpha mRNA expression in brain nucleus accumbens region at 0.2 mg/kg,ip administrated for 6 consecutive days by qPCR analysis; format: functional, organism-based
[6] = biological target: T1, Toll-like receptor 4 (Mus musculus) (UniProt Q9QUK6); test: Antagonist activity at TLR4 signaling pathway in mouse BV-2 cells assessed as downregulation of LPS-induced IRAK1 phosphorylation at 5 uM incubated for 1 hr by Western blot analysis; format: cell-based
T1 sequence (whole entry): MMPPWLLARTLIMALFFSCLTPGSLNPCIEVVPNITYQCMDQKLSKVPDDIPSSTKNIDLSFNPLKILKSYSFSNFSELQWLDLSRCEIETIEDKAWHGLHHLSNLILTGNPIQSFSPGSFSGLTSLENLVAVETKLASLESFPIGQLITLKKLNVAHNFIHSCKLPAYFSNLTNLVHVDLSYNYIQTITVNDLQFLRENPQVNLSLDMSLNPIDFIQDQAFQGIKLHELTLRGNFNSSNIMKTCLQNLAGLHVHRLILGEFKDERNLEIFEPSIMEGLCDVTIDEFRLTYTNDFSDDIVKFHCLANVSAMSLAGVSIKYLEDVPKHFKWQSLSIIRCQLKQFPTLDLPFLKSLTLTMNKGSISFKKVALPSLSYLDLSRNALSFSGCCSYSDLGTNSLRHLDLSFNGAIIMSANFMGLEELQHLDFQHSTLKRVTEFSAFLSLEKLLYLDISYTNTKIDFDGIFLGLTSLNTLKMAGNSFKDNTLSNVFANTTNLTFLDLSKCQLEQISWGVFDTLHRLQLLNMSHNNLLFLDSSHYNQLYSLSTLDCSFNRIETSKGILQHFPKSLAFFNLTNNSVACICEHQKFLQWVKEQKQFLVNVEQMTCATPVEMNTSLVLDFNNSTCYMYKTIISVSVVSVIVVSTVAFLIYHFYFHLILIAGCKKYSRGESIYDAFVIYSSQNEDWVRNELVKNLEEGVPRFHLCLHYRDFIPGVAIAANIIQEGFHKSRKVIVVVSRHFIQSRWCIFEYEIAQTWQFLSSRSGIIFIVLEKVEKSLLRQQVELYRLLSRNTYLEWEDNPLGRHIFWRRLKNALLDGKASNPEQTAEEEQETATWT

Toll-like receptor 4 = biological target: T2, Toll-like receptor 4 (Mus musculus, UniProt Q9QUK6); test: Antagonist activity at TLR4 in mouse BV-2 cells assessed as inhibition of LPS-induced NO overproduction incubated for 24 hrs by 2,3-diaminonaphthalene reagent based microplate reader analysis; format: cell-based
T2 sequence (Q9QUK6 whole entry): T1 sequence (whole entry)

[7] = Clearance in Balb/c mouse at 2 mg/kg,iv administration and measured upto 24 hrs by LC-MS/MS analysis; format: ADME, organism-based; settings: in vivo
Mus musculus [8] = test: Inhibition of morphine-induced addiction behavior in Balb/c mouse assessed as decrease in total distance traveled in field at 0.005 to 0.2 mg/kg,ip administrated on day 4 to 10 by open-field test; format: functional, organism-based; settings: dose 0.005-0.2 mg/kg, time 7.0 day
[9] = Ratio of drug concentration in brain to plasma in Balb/c mouse at 2 mg/kg,iv measured after 30 mins by LC-MS/MS analysis; format: ADME, organism-based; settings: 0.5 h
[10] = Toxicity in morphine-induced Balb/c mouse assessed body weight loss at 0.2 mg/kg,ip administrated for 1 week and measured on day 15; format: organism-based; settings: in vivo, 360 h, time 15 day
Mus musculus [11] = test: Inhibition of morphine-induced addiction behavior in Balb/c mouse assessed reduction in CPP score at 0.2 mg/kg,ip administrated for 6 consecutive days by conditioned place preference assay; format: functional, organism-based

| Structure (SMILES) | IC50 at 24 h [1] | AUC(0-inf) [2] | AUC(0-inf) [3] | inhibition (Mus musculus [4]) | inhibition (Mus musculus [5]) | Activity [6] | IC50 (Toll-like receptor 4) | clearance [7] | inhibition (Mus musculus [8]) | BPR [9] | Activity [10] | inhibition (Mus musculus [11]) |
| --- | --- | --- | --- | --- | --- | --- | --- | --- | --- | --- | --- | --- |
| CN1CC[C@@]23c4c5ccc(O)c4O[C@@H]2C(=O)C=C[C@]3(O)[C@@H]1C5 (single isomer, unassigned) | 13.7 µM | 71.8 ng·h/mL | 295 ng·h/mL | Active | Active | inactive | 1 µM | 469 mL/min/kg | inactive | 18.4% | Non-Toxic | Active |
| COc1ccc2c3c1O[C@@H]1C(=O)C=C[C@]4(O)[C@H](C2)N(C)CC[C@@]314 (single isomer, unassigned) | 23.6 µM | 16.5 ng·h/mL | 89.6 ng·h/mL | Active | Active | inactive | 1.3 µM | – | inactive | 73.6% | Non-Toxic | Active |
